Laboratory results as given in patent publication US7662856B2, “Compositions having antimycrobial activity including a hydroxamate or a hydroxamate and a hydroxlyamine” (The University of Houston System, priority 2003, dated 2010).
Values after ≈ are worked out from the molar mass of the structure shown. Counter-ions that a name gives are not always drawn. Like-named read-outs stand apart in the source and are kept apart here.

Columns and labels:
[1] = target: alanine racemase enzyme from M. tuberculosis (Mycobacterium tuberculosis, UniProt P9WQA9, DEL103-104); format: biochemical
alanine racemase enzyme from M. tuberculosis, sequence (P9WQA9 whole entry, looked up, stated change not applied): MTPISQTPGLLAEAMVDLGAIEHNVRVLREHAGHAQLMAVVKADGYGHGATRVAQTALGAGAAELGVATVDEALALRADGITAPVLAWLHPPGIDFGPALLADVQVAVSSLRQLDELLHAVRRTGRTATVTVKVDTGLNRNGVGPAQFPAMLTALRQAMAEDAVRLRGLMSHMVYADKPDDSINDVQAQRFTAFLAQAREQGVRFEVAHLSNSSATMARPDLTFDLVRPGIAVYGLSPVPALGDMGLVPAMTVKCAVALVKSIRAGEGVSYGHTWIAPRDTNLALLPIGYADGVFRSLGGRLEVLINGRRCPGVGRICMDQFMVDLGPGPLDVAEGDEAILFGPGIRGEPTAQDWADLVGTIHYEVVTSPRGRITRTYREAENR

M. tuberculosis [2] = assay: microbe, parasite or virus in culture; format: cell-based
E. Coli = assay: microbe, parasite or virus in culture; format: cell-based
S. aureus = assay: microbe, parasite or virus in culture; format: cell-based
[3] = target: alanine racemase enzyme from E. Coli (Escherichia coli, UniProt P0A6B4); assay: biochemical; conditions: for inhibition at 2500 µM: read-out: In % (percent inhibition of alanine racemase)
alanine racemase enzyme from E. Coli, sequence (P0A6B4 whole entry): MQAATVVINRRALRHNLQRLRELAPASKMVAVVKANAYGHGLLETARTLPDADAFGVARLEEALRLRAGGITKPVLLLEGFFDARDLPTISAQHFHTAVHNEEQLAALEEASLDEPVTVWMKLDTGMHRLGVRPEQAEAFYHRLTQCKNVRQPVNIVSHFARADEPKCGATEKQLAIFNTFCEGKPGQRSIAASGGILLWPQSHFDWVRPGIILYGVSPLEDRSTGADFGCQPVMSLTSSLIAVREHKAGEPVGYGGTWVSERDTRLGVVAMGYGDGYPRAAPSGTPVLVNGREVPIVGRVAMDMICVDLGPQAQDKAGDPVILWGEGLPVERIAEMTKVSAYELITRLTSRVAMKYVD

M. tuberculosis [4] = format: cell-based
[5] = target: alanine racemase enzyme from P. aeruginosa (Pseudomonas aeruginosa, UniProt Q9HTQ2, A178S/N326M/S138R/S262R); assay: biochemical; conditions: for inhibition at 2500 µM: read-out: In % (percent inhibition of alanine racemase)
alanine racemase enzyme from P. aeruginosa, sequence (Q9HTQ2 whole entry S138R/A178S/S262R/N326M): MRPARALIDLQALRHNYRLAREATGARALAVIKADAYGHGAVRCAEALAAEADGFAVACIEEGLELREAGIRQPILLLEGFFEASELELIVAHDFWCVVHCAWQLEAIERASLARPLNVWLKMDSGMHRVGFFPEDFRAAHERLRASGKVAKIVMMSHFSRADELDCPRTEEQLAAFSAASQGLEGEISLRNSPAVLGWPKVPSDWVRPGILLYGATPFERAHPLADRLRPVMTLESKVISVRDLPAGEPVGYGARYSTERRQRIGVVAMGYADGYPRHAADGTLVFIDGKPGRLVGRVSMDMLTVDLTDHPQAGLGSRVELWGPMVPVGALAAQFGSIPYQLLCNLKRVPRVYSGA

[6] = target: T1, alanine racemase enzyme from S. aureus (Staphylococcus aureus, UniProt P63479); assay: biochemical; conditions: for inhibition at 2500 µM: read-out: In % (percent inhibition of alanine racemase)
T1 sequence (P63479 1-382): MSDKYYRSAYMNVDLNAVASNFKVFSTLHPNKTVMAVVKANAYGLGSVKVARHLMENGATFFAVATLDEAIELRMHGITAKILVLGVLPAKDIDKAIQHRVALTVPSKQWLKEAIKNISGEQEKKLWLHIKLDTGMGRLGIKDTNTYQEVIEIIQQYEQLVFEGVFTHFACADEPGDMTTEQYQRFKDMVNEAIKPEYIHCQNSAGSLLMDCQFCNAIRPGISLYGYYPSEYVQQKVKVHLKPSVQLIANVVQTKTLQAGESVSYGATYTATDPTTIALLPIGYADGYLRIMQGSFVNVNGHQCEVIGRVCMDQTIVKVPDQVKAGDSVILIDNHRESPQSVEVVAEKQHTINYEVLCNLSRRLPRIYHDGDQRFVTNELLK

[7] = Mycobacterium tuberculosis, MGIT Assay, read-out: MIC
[8] = Staphylococcus aureus, read-out: MIC
[9] = E. Coli ALR, % Inhibition at 2.5 mM
[10] = TB Assay of Hydroxamate Candidates, DMSO control 7, Water control 8
[11] = P. aeruginosa ALR, % Inhibition at 2.5 mM
[12] = P. aeruginosa ALR, read-out: Ki
[13] = S. aureus ALR, % Inhibition at 2.5 mM
[14] = Escherichia coli, read-out: MIC

Compound | % In in TB-ALR-assay [1] | In % (percent inhibition of alanine racemase) [1] | MIC (E. Coli; Escherichia coli) | Ki ([3]; Ki) | inhibition at 2500 µM [3] | Ki ([5]; Ki) | inhibition at 2500 µM [5] | Ki ([6]; S. aureus ALR, read-out: Ki) | inhibition at 2500 µM [6] | MIC (M. tuberculosis [2]; [7]) | MIC (S. aureus; [8]) | inhibition at 2500 µM [3, 9] | Ki ([3]; E. Coli ALR, read-out: Ki) | Days of Detection (M. tuberculosis [4]; [10]) | inhibition at 2500 µM [5, 11] | Ki [5, 12] | inhibition at 2500 µM [6, 13] | MIC (E. Coli; [14]) | MIC (E. Coli) | MIC (S. aureus) | also measured
CNCC(=O)NO [CH3NHCH2C(O)NHOH, Sarcosine Hydroxamic Acid] | 81% | 81 ± 7% | > 5 mM | 5700 µM | 34 ± 12% | 18200 µM | 24 ± 5% | 14300 µM | 28 ± 5% |  |  |  |  |  |  |  |  |  |  |  | MIC (M. tuberculosis [2]; Mycobacterium tuberculosis): 200 µg/mL (≈ 1920 µM); MIC (S. aureus; Staphylococcus aureus): > 5 mM; Days of Detection (M. tuberculosis [4]): 32.5 days; melting point: 140 to 141 °C
N[C@@H]1CON=C1O [D-cycloserine, reference compound] | 96% | 93% |  |  |  |  |  | 10 µM |  | < 12.5 µg/mL | 0.2 mM (≈ 20.4 µg/mL) | 93% | 10 µM | >40 days | 95% | 10 µM | 94% |  |  |  | 
NC(=O)C(=O)NO [H2NC(O)C(O)NHOH, N-Hydroxyoxalamide] | 93% | 93 ± 8% |  |  |  |  |  | 17 µM |  | 50 µg/mL (≈ 480 µM) | > 5 mM | 97 ± 4% | 52 µM | 32 days | 99 ± 4% | 16 µM | 97% | > 5 mM |  |  | 
NCC(=O)NO [H2NCH2C(O)NHOH, glycine hydroxamic acid] | 100% | 100 ± 1% |  |  |  |  |  | 90 µM |  | 50 µg/mL (≈ 555 µM) |  |  | 39 µM | >40 days |  | 65 µM |  |  | >5 mM | >0.5 mM | In % (percent inhibition of alanine racemase) [3, 9]: 90 ± 5%; In % (percent inhibition of alanine racemase) [5, 11]: 94 ± 1%; In % (percent inhibition of alanine racemase) [6, 13]: 91 ± 3%
NC(=O)OCC(N)C(=O)NO (stereo not shown) [H2NCH(CH2OCONH2)C(O)NILIOH] |  | 97 ± 5% |  |  |  |  |  | 56 µM |  |  | > 5 mM | 96 ± 8% | 8 µM |  | 94 ± 5% | 30 µM | 93 ± 4% | > 5 mM |  |  | 
NC(CO)C(=O)NO (stereo not shown) [H2NCH(CH2OH)C(O)NHOH] | 33% | 33 ± 8% |  |  |  |  |  | 7200 µM |  | 100 µg/mL (≈ 833 µM) | > 5 mM | 0% |  | 21.5 days | 28 ± 5% | 5100 µM | 19 ± 8% | > 5 mM |  |  | 
NCC(=O)NO [H2NOH2G(O)NHOH] |  | 100 ± 2% |  |  |  |  |  | 34 µM |  |  |  |  | 75 µM |  |  | 33 µM |  |  | >5 mM | >5 mM | In % (percent inhibition of alanine racemase) [3, 9]: 90 ± 4%; In % (percent inhibition of alanine racemase) [5, 11]: 90 ± 2%; In % (percent inhibition of alanine racemase) [6, 13]: 92 ± 3%
Cl.NCC(=O)NO [HCl•H2NCH2C(O)NHOH, Glycine Hydroxamic Acid Hydrochloride] | 100% | 105 ± 6% | > 5 mM | 268 µM | 88 ± 4% | 201 µM | 114 ± 14% |  | 95 ± 1% |  |  |  |  |  |  |  |  |  |  | >5 mM | MIC (M. tuberculosis [2]; Mycobacterium tuberculosis): 200 µg/mL; Days of Detection (M. tuberculosis [4]): 16.5 days; Ki ([6]; Ki): 217 µM
Cl.NCCC(=O)NO [HCl•H2NCH2CH2C(O)NHOH, β-Alanine Hydroxamic Acid Hydrochloride] | 79% | 79 ± 12% | > 5 mM | 1210 µM | 37 ± 10% | 894 µM | 34 ± 9% |  | 49 ± 12% |  |  |  |  |  |  |  |  |  |  |  | MIC (M. tuberculosis [2]; Mycobacterium tuberculosis): > 200 µg/mL; MIC (S. aureus; Staphylococcus aureus): > 5 mM; Days of Detection (M. tuberculosis [4]): 8.5 days; melting point: 140 to 142 °C; Ki ([6]; Ki): 401 µM
C[C@H](N)C(=O)NO.Cl [HCl•H2NCH(CH3)C(O)NHOH*, L-Alanine Hydroxamic Acid Hydrochloride] |  |  | > 5 mM | 2780 µM | 39 ± 8% | 1060 µM | 33 ± 2% |  | 32 ± 8% |  |  |  |  |  |  |  |  |  |  |  | MIC (S. aureus; Staphylococcus aureus): > 5 mM; melting point: 178 to 180 °C; Ki ([6]; Ki): 1300 µM
C[C@@H](N)C(=O)NO [Hcl•H2NCH(CH3)C(O)NHOH, D-Alanine Hydroxamic Acid Hydrochloride] |  |  | > 5 mM | 5200 µM | 35 ± 7% | 1010 µM | 29 ± 6% |  | 33 ± 6% |  |  |  |  |  |  |  |  |  |  |  | MIC (S. aureus; Staphylococcus aureus): > 5 mM; Ki ([6]; Ki): 2680 µM
CC(N)C(=O)NO (stereo not shown) [HzNGH(~Ha)G(O)NHOH] |  | 48 ± 9% |  |  |  |  |  | 810 µM |  |  | > 5 mM | 58 ± 2% | 756 µM |  | 66 ± 3% | 656 µM | 57 ± 4% | > 5 mM |  |  | 
CONC(=O)CN.O=C(O)C(F)(F)F [TFA•H2NCH2C(O)NHOCH3, O-Methylglycine Hydroxamic Acid Trifluoroacetic Acid] | 66% | 66% |  |  |  |  |  | 1850 µM |  | 50 µg/mL | > 5 mM | 67% | 1340 µM | >40 days | 55% | 1510 µM | 47% | > 5 mM |  |  | 
NCC(=O)NO [TFA•H2NCH2G(O)NHOH, glycine hydroxamic trifluoracetic acid] |  | 104 ± 4% |  |  |  |  |  | 23 µM |  |  |  | 94 ± 4% | 78 µM |  |  | 20 µM | 99 ± 3% |  | >5 mM | >5 mM | In % (percent inhibition of alanine racemase) [5, 11]: 112 ± 7%
N,O-Methylglycine Hydroxamic Acid Trifluoroacetic Acid [TFA•H2NCH2C(O)N(CH3)OCH3] | 66% | 66 ± 4% |  |  |  |  |  | 590 µM |  |  |  |  | 875 µM |  |  | 633 µM |  |  | >5 mM | >5 mM | Ki [1]: 644 µM; MIC (M. tuberculosis [2]): >200 µg/mL; In % (percent inhibition of alanine racemase) [3, 9]: 49 ± 2%; Days of Detection (M. tuberculosis [4]): 9 days; In % (percent inhibition of alanine racemase) [5, 11]: 68 ± 5%; In % (percent inhibition of alanine racemase) [6, 13]: 66 ± 3%
N-Benzylglycine Hydroxamic Acid [PhCH2NHCH2C(O)NHOH] | 88% | 88 ± 3% |  |  |  |  |  | 1980 µM |  |  |  |  | 1840 µM | 18.5 days |  | 1240 µM |  |  | >5 mM | >5 mM | Ki [1]: 519 µM; MIC (M. tuberculosis [2]; MGIT Assay): 50 µg/mL; In % (percent inhibition of alanine racemase) [3, 9]: 0.58 ± 3%; In % (percent inhibition of alanine racemase) [5, 11]: 39 ± 9%; In % (percent inhibition of alanine racemase) [6, 13]: 53 ± 13%
